Literature values in patent EP0985412B1, “Cyclosporin compositions” (Panacea Biotec Limited, priority 1998, dated 2000).

Test system: normal epithelial tissue and Peyer's patch tissue of guinea pigs

In the case of Choleic acid, the “absorption raised by a factor” value is given as 5-6.
